From patent US10548862B2, “Topical formulation and method for preventing or treating acne” (Gongwin Biopharm Holdings Co., Ltd., priority 2017, dated 2020)
Converted amounts (≈) assume the structure as drawn.

Experiment: Solubility of p-TSA in various solvents
Assay type: physicochemical
Conditions: thermodynamic from solid

- solubility (aqueous with cosolvent or surfactant or cyclodextrin, in 20% 7-sulfobutyl-ether-β-cyclodextrin (SBEβCD), n = 3): 17.6 mg/mL (≈ 103 mM)
- solubility (organic solvent or mixture, in Absolute ethanol, n = 3): 108 mg/mL (≈ 628 mM)
- solubility (organic solvent or mixture, in Dimethyl sulfoxide (DMSO), n = 3): 786 mg/mL (≈ 4590 mM)
- solubility (organic solvent or mixture, in Glycerol, n = 3): 28.4 mg/mL (≈ 166 mM)
- solubility (organic solvent or mixture, in Glycofurol 75, n = 3): 443 mg/mL (≈ 2590 mM)
- solubility (organic solvent or mixture, in Polyethylene glycol 400 (PEG-400), n = 3): 467 mg/mL (≈ 2720 mM)
- solubility (organic solvent or mixture, in Propylene glycol (PG), n = 3): 118 mg/mL (≈ 688 mM)
Structure (SMILES): Cc1ccc(S(N)(=O)=O)cc1 [p-TSA, p-Toluenesulfonamide]
